Data as given in PubChem BioAssay (NCI).
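Briefly, cells in 96-well plates were exposed to five compound concentrations for 48 h, and endpoints were estimated by linear interpolation. TGI is the concentration that stops growth completely.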

Legend:
Experiment in all cases: DTP human tumour cell line panel, 48 h
HT29 colon = system: HT29 colon
SN12C renal = system: SN12C renal
SNB-19 CNS = system: SNB-19 CNS
UACC-257 melanoma = system: UACC-257 melanoma
RXF 393 renal = system: RXF 393 renal
HOP-92 NSCLC = system: HOP-92 NSCLC
IGROV1 ovarian = system: IGROV1 ovarian
KM20L2 colon = system: KM20L2 colon
OVCAR-4 ovarian = system: OVCAR-4 ovarian
SK-MEL-2 melanoma = system: SK-MEL-2 melanoma
MALME-3M melanoma = system: MALME-3M melanoma
SW-620 colon = system: SW-620 colon
A549 NSCLC = system: A549 NSCLC
EKVX NSCLC = system: EKVX NSCLC
NCI-H460 lung = system: NCI-H460 lung
SNB-75 CNS = system: SNB-75 CNS
TK-10 renal = system: TK-10 renal
A498 renal = system: A498 renal
HL-60(TB) leukemia = system: HL-60(TB) leukemia
SNB-78 CNS = system: SNB-78 CNS
HOP-18 NSCLC = system: HOP-18 NSCLC
NCI-H522 lung = system: NCI-H522 lung
COLO 205 colon = system: COLO 205 colon
MOLT-4 leukemia = system: MOLT-4 leukemia
XF 498 CNS = system: XF 498 CNS
CAKI-1 renal = system: CAKI-1 renal
OVCAR-8 ovarian = system: OVCAR-8 ovarian
DMS 273 small cell lung = system: DMS 273 small cell lung
DLD-1 colon = system: DLD-1 colon
SF-539 CNS = system: SF-539 CNS
NCI-H23 lung = system: NCI-H23 lung
HCT-116 colon = system: HCT-116 colon
U251 CNS = system: U251 CNS
LOX IMVI melanoma = system: LOX IMVI melanoma
SR leukemia = system: SR leukemia
OVCAR-5 ovarian = system: OVCAR-5 ovarian
LXFL 529 NSCLC = system: LXFL 529 NSCLC
SF-295 CNS = system: SF-295 CNS
786-0 renal = system: 786-0 renal
SK-MEL-28 melanoma = system: SK-MEL-28 melanoma
OVCAR-3 ovarian = system: OVCAR-3 ovarian
KM12 colon = system: KM12 colon
HOP-62 NSCLC = system: HOP-62 NSCLC
CCRF-CEM leukemia = system: CCRF-CEM leukemia
UACC-62 melanoma = system: UACC-62 melanoma
UO-31 renal = system: UO-31 renal
HCT-15 colon = system: HCT-15 colon
SF-268 CNS = system: SF-268 CNS
SK-OV-3 ovarian = system: SK-OV-3 ovarian
M14 melanoma = system: M14 melanoma
RPMI-8226 leukemia = system: RPMI-8226 leukemia
M19-MEL melanoma = system: M19-MEL melanoma
SK-MEL-5 melanoma = system: SK-MEL-5 melanoma
ACHN renal = system: ACHN renal
HCC-2998 colon = system: HCC-2998 colon
K-562 leukemia = system: K-562 leukemia
NCI-H226 lung = system: NCI-H226 lung
DMS 114 small cell lung = system: DMS 114 small cell lung

## CC(=O)Nc1ccc(C2=N/C(=C\c3ccc(Cl)cc3)C(=O)O2)cc1
HT29 colon
  TGI: > 100 µM
SN12C renal
  TGI: 61.5 µM
SNB-19 CNS
  TGI: > 100 µM
UACC-257 melanoma
  TGI: > 100 µM
RXF 393 renal
  TGI: > 100 µM
HOP-92 NSCLC
  TGI: > 100 µM
IGROV1 ovarian
  TGI: > 100 µM
KM20L2 colon
  TGI: > 100 µM
OVCAR-4 ovarian
  TGI: > 100 µM
SK-MEL-2 melanoma
  TGI: > 100 µM
MALME-3M melanoma
  TGI: > 100 µM
SW-620 colon
  TGI: 22.8 µM
A549 NSCLC
  TGI: > 100 µM
EKVX NSCLC
  TGI: > 100 µM
NCI-H460 lung
  TGI: > 100 µM
SNB-75 CNS
  TGI: > 100 µM
TK-10 renal
  TGI: > 100 µM
A498 renal
  TGI: > 100 µM
HL-60(TB) leukemia
  TGI: 85.8 µM
SNB-78 CNS
  TGI: > 100 µM
HOP-18 NSCLC
  TGI: > 100 µM
NCI-H522 lung
  TGI: 63.7 µM
COLO 205 colon
  TGI: > 100 µM
MOLT-4 leukemia
  TGI: 64.1 µM
XF 498 CNS
  TGI: 61.4 µM
CAKI-1 renal
  TGI: > 100 µM
OVCAR-8 ovarian
  TGI: > 100 µM
DMS 273 small cell lung
  TGI: > 100 µM
DLD-1 colon
  TGI: > 100 µM
SF-539 CNS
  TGI: > 100 µM
NCI-H23 lung
  TGI: > 100 µM
HCT-116 colon
  TGI: > 100 µM
U251 CNS
  TGI: > 100 µM
LOX IMVI melanoma
  TGI: 35.6 µM
SR leukemia
  TGI: 61.2 µM
OVCAR-5 ovarian
  TGI: > 100 µM
LXFL 529 NSCLC
  TGI: 56.9 µM
SF-295 CNS
  TGI: > 100 µM
786-0 renal
  TGI: 51.6 µM
SK-MEL-28 melanoma
  TGI: > 100 µM
OVCAR-3 ovarian
  TGI: 86.7 µM
KM12 colon
  TGI: > 100 µM
HOP-62 NSCLC
  TGI: > 100 µM
CCRF-CEM leukemia
  TGI: 71.7 µM
UACC-62 melanoma
  TGI: > 100 µM
UO-31 renal
  TGI: 73.9 µM
HCT-15 colon
  TGI: 37.1 µM
SF-268 CNS
  TGI: 90.9 µM
SK-OV-3 ovarian
  TGI: > 100 µM
M14 melanoma
  TGI: 56.2 µM
RPMI-8226 leukemia
  TGI: > 100 µM
M19-MEL melanoma
  TGI: 57.5 µM
SK-MEL-5 melanoma
  TGI: > 100 µM
ACHN renal
  TGI: 94 µM
HCC-2998 colon
  TGI: 38.5 µM
K-562 leukemia
  TGI: 51.8 µM
NCI-H226 lung
  TGI: > 100 µM

## Cc1ncc(CBr)c(CBr)c1O
SN12C renal
  TGI: > 100 µM
HOP-92 NSCLC
  TGI: > 100 µM
IGROV1 ovarian
  TGI: > 100 µM
OVCAR-4 ovarian
  TGI: > 100 µM
SK-MEL-2 melanoma
  TGI: > 100 µM
MALME-3M melanoma
  TGI: > 100 µM
SNB-75 CNS
  TGI: > 100 µM
A498 renal
  TGI: > 100 µM
HL-60(TB) leukemia
  TGI: > 100 µM
SNB-78 CNS
  TGI: > 100 µM
NCI-H522 lung
  TGI: > 100 µM
DMS 114 small cell lung
  TGI: > 100 µM
COLO 205 colon
  TGI: > 100 µM
MOLT-4 leukemia
  TGI: > 100 µM
XF 498 CNS
  TGI: > 100 µM
CAKI-1 renal
  TGI: > 100 µM
DMS 273 small cell lung
  TGI: > 100 µM
DLD-1 colon
  TGI: > 100 µM
SF-539 CNS
  TGI: > 100 µM
NCI-H23 lung
  TGI: > 100 µM
HCT-116 colon
  TGI: > 100 µM
SR leukemia
  TGI: > 100 µM
LXFL 529 NSCLC
  TGI: > 100 µM
786-0 renal
  TGI: > 100 µM
SK-MEL-28 melanoma
  TGI: > 100 µM
HOP-62 NSCLC
  TGI: > 100 µM
CCRF-CEM leukemia
  TGI: > 100 µM
UACC-62 melanoma
  TGI: > 100 µM
UO-31 renal
  TGI: > 100 µM
SF-268 CNS
  TGI: > 100 µM
SK-OV-3 ovarian
  TGI: > 100 µM
M14 melanoma
  TGI: > 100 µM
RPMI-8226 leukemia
  TGI: > 100 µM
M19-MEL melanoma
  TGI: > 100 µM
ACHN renal
  TGI: > 100 µM
HCC-2998 colon
  TGI: > 100 µM
K-562 leukemia
  TGI: > 100 µM
NCI-H226 lung
  TGI: > 100 µM
